According to patent publication EP3974434B1, “MACROLIDE DERIVATIVES, PREPARATION METHOD AND APPLICATION THEREOF” (Zhejiang Hisun Pharmaceutical Co., Ltd., priority 2019, dated 2020):
Like-named read-outs stand apart in the source and are kept apart here.

Experiments:
TRKA = biological target: T1, TRKA (Homo sapiens, UniProt P04629); assay: HTRF KinEASE-TK kinase activity inhibition assay, TRKA; type: biochemical; conditions: ATP 100 µM
T1 construct: purchased Carna bioscience 08-186
From the text: (§1) The following method was used to determine the inhibition degrees of the compounds of the present invention on the activity of recombinant human NTRK family kinase in vitro. In this method, HTRF®KinEASE-TK tyrosine kinase kit (article number: 62TK0PEB) of Cisbio company was used, and the principle of the kit was based on time-resolved fluorescence resonance energy transfer (TF-FRET), and the inhibition of the compounds on the activity of the NTRK kinase was reflected by determining a phosphorylation degree of a biotinylated polypeptide substrate mediated by NTRK kinase. For detailed experimental operation, please refer to the kit instruction. Recombinant human wild-type NTRK proteins were purchased from Carna bioscience (the article numbers were TRKA #08-186, TRKB #08-187 and TRKC #08-197 respectively), and recombinant human mutant NTRK proteins were purchased from SignalChem (the article numbers were TRKA G595R #N16-12BG-10, TRKA G667C # N16-12CG-10, and TRKC G623R # N18-12CH-10 respectively).
(§2) The experimental methods were operated according to the steps in the kit instruction, and were briefly described as follows: a test compound was first dissolved in DMSO to prepare a storage solution, and then diluted in gradient with a buffer provided in the kit. A final concentration of the test compound in the reaction system ranged from 1,000 nM to 0.004 nM. An ATP Km value concentration of each NTRK protein was determined by using an ATP solution diluted in gradient (Sangon Biotech (Shanghai) Co., Ltd., A600311). According to the Km value obtained, the ATP concentrations in the reaction system were set as 100 µM for TRKA, 10 µM for TRKB, 50 µM for TRKC, 7 µM for TRKA(G595R), 1 µM for TRKA(G667C) and 100 µM for TRKC(G623R). The reaction was carried out in a 384-well microplate. Firstly, the compound and a certain amount of corresponding NTRK protein were added to the wells and incubated for 5 minutes to 10 minutes at room temperature. Then, the ATP solution and the biotinylated polypeptide substrate solution were added to the reaction solution and incubated with shaking at room temperature for 60 minutes. Then, an anti-phosphorylated tyrosine antibody coupled with a europium compound and streptavidin coupled with modified allophycocyanin XL665 were added to the reaction, and continuously incubated with shaking at room temperature for 1 hour. After incubation, fluorescence intensity values of each well at an excitation wavelength of 304 nm, and emission wavelengths of 620 nm and 665 nM were determined in a TF-FRET mode on a microplate reader. Compared with the fluorescence intensity ratio of a control group (0.1% DMSO), the percentage inhibition rates of the compound at each concentration were calculated, and the IC50 value of the compound was obtained by performing nonlinear regression analysis for logarithmic value of the compound concentration - inhibition rate by GraphPad Prism 5 software, which can be seen in Table 1. Table 1 IC50 data of the compounds of the present invention on TRK enzyme activity inhibition

[1] = Pharmacokinetic study on ICR mice (plasma, LC-MS/MS); type: in vivo; conditions: male, mouse; for AUC(0-inf): read-out: Area under curve AUC0-∞; for half-life: read-out: Half-life T1/2(h) (converted)
Protocol: ICR mice, male, 29.0 g to 33.8g, purchased from Beijing Charles River Laboratory Animal Technology Co., Ltd.
Intravenous injection group: an appropriate amount of drug was weighed, and added with mixed solvent (DMA: 30% Solutol HS-15: Saline = 10: 10: 80 (v/v/v)) to prepare the drug with a final concentration of 0.2 mg/mL.
Oral gavage administration group: an appropriate amount of drug was weighed, added with an appropriate amount of sodium carboxymethyl cellulose (CMC-Na, containing 0.5% Tween 80), vortex shaked, and ultrasonically prepared into […] suspension.
For ICR mice, each compound to be tested was divided into an intravenous injection group (9 mice in each group) and an intragastric group (9 mice in each group). The ICR mice were fasted overnight and then administered by orbital intravenous injection (administration dose of 1 mg/kg, and administration volume of 5 mL/kg) and administered by intragastric injection (administration dose of 5 mg/kg, and administration volume of 10 mL/kg), and ate 4 hours after administration.
About 0.2 mL of blood was collected via jugular vein before administration and 0.083 hour, 0.25 hour, 0.5 hour, 1 hour, 2 hours, 4 hours, 8 hours, 12 hours and 24 hours after administration, and heparin sodium was used for anticoagulation. The collected blood samples were placed on ice, and plasma was separated by centrifugation (centrifugation condition: 1500 g, 10 minutes). The collected plasma was stored at-40°C to -20°C before analysis.
LC-MS/MS was used to determine the contents of different compounds to be tested in mouse plasma after intravenous injection and intragastric administration.
The pharmacokinetic parameters of the compounds of the present invention and the positive control can be seen in Table 8. Table 8 Results of pharmacokinetic parameters

TRKC(G623R) = biological target: T2, TRKC(G623R) (Homo sapiens, UniProt Q16288, G623R); assay: HTRF KinEASE-TK kinase activity inhibition assay, TRKC(G623R); type: biochemical; conditions: ATP 100 µM
T2 construct: purchased SignalChem N18-12CH-10
From the text: as §1
as §2, with “Then, an anti-phosphorylated tyrosine antibody coupled with a europium compound and streptavidin coupled with modified allophycocyanin XL665 were added to the reaction, and continuously incubated with shaking at room temperature for 1 hour.” left out, “Table 1 IC50 data of the compounds of the present invention on TRK enzyme activity inhibition” left out

TRKA(G595R) = biological target: T3, TRKA(G595R) (Homo sapiens, UniProt P04629, G595R); assay: HTRF KinEASE-TK kinase activity inhibition assay, TRKA(G595R); type: biochemical; conditions: ATP 7 µM
T3 construct: purchased SignalChem N16-12BG-10
From the text: as §1, §2

TRKB = biological target: T4, TRKB (Homo sapiens, UniProt Q16620); assay: HTRF KinEASE-TK kinase activity inhibition assay, TRKB; type: biochemical; conditions: ATP 10 µM
T4 construct: purchased Carna bioscience 08-187
From the text: as §1, §2

TRKC = biological target: T5, TRKC (Homo sapiens, UniProt Q16288); assay: HTRF KinEASE-TK kinase activity inhibition assay, TRKC; type: biochemical; conditions: ATP 50 µM
T5 construct: purchased Carna bioscience 08-197
From the text: as §1, §2

TRKA(G667C) = biological target: T6, TRKA(G667C) (Homo sapiens, UniProt P04629, G667C); assay: HTRF KinEASE-TK kinase activity inhibition assay, TRKA(G667C); type: biochemical; conditions: ATP 1 µM
T6 construct: purchased SignalChem N16-12CG-10
From the text: as §1, §2

[2] = intravenous, 1 mg/kg, injection

T6 sequence (P04629 33-796 G667C): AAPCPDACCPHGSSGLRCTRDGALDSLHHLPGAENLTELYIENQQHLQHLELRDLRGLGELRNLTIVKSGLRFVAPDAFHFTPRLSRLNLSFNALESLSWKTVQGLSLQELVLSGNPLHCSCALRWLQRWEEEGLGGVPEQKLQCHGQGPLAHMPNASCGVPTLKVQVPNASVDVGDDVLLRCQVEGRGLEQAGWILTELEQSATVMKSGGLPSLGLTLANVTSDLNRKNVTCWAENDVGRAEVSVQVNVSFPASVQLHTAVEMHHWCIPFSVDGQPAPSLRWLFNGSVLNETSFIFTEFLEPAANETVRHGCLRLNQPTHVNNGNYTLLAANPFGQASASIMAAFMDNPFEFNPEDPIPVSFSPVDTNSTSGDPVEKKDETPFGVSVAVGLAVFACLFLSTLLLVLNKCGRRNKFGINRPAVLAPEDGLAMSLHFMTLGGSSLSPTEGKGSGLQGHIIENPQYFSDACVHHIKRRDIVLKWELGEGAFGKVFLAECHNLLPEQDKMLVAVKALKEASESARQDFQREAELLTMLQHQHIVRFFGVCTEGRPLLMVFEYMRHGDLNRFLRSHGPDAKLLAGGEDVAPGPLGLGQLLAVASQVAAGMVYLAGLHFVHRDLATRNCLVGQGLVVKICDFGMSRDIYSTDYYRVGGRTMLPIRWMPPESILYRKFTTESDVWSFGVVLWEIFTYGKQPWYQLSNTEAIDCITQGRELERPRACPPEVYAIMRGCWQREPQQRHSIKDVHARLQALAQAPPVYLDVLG
T5 sequence (Q16288 32-839): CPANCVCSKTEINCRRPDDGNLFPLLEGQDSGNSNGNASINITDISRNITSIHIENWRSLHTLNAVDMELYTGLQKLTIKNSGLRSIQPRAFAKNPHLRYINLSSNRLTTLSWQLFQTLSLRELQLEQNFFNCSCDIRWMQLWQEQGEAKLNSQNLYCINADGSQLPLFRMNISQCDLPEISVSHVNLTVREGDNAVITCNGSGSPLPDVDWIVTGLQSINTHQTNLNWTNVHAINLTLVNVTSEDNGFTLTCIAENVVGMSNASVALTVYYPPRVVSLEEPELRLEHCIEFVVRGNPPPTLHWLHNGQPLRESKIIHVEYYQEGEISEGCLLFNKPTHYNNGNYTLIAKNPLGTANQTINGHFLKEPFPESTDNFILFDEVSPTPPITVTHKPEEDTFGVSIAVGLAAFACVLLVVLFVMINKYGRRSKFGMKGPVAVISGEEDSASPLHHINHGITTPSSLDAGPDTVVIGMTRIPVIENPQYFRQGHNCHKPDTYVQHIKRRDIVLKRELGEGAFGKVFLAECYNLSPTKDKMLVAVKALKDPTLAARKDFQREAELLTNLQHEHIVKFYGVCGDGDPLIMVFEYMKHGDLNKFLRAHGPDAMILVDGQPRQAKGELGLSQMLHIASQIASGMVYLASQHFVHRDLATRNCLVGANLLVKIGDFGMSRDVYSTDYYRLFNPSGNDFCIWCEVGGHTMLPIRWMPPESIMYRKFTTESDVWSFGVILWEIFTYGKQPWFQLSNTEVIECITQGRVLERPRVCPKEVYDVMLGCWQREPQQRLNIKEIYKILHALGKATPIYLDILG
T4 sequence (Q16620 32-822): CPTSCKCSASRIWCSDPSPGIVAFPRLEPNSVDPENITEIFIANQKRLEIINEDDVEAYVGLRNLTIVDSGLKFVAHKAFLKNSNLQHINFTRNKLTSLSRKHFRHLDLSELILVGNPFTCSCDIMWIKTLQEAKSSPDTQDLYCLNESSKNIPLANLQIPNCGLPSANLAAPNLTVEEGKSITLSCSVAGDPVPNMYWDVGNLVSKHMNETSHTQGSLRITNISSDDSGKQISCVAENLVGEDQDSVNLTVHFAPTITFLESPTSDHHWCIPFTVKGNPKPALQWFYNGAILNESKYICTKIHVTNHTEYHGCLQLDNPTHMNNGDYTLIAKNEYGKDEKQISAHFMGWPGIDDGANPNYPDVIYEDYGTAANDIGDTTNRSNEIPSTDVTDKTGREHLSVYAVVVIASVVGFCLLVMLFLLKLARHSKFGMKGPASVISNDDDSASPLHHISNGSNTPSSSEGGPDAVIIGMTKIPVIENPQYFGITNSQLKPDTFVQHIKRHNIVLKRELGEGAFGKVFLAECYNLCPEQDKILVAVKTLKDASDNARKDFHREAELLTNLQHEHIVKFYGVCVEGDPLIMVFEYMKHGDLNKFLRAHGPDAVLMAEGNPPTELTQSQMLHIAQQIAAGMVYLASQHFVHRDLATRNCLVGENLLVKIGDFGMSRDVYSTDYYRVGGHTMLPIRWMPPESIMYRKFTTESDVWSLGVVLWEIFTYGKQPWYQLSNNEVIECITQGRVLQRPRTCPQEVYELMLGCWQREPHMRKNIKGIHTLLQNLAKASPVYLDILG
T3 sequence (P04629 33-796 G595R): as the sequence (P04629 33-796 G667C) above, with G563R, C635G counted along it
T1 sequence (P04629 33-796): as the sequence (P04629 33-796 G667C) above, with C635G counted along it
T2 sequence (Q16288 32-839 G623R): as the sequence (Q16288 32-839) above, with G592R counted along it

IC50 (TRKA) [nM] | bioavailability ([1]; 5 mg/kg oral intake vs 1 mg/kg injection, read-out: Bioavailability F(%)) [%] | AUC(0-inf) ([1]; 5 mg/kg, oral intake) [ng·h/mL] | Cmax ([1]; 5 mg/kg, oral intake, read-out: Blood concentration Cmax) [ng/mL] | half-life ([1]; 5 mg/kg, oral intake) [h] | AUC(0-inf) [1, 2] [ng·h/mL] | clearance ([1]; intravenous, 1 mg/kg, injection, read-out: Clearance rate) [mL/min/kg] | half-life [1, 2] [h] | IC50 (TRKC(G623R)) [nM] | IC50 (TRKA(G595R)) [nM] | IC50 (TRKB) [nM] | IC50 (TRKC) [nM] | IC50 (TRKA(G667C)) [nM] | Compound
0.92 | 65 | 6040 | 2600 | 2.03 | 1850 | 9 | 1.79 | 14.5 | 4.31 | 0.76 | 2.63 |  | C[C@H]1Nc2ccn3ncc(c3n2)C(=O)NCC2(C)Cc3cc(F)cc1c3O2 (stereo partly drawn) [Example 5, (3R)-6-fluoro-3,11-dimethyl-10-oxa-2,13,17,18,21-pentaazapentacyclo[13.5.2.1^8,11.0^4,9.0^18,22]tricosa-1 (21),4,6,8,15(22),16,19-heptaen-14-one]
2.05 |  |  |  |  |  |  |  | 25.3 | 2.65 | 0.32 |  | 21.1 | C[C@H]1Nc2ccn3ncc(c3n2)C(=O)NC[C@@H]2COc3cc(F)cc1c3O2 [Example 7, (2R,14R)-19-fluoro-2-methyl-16,22-dioxa-3,5,7,8, 12-pentaazapentacyclo[12.6.2.2^4,7.0^6,10.0^17,21]tetrac osa-1(20),4,6(10),8,17(21),18,23-heptaen-11-one]
0.63 |  |  |  |  |  |  |  |  | 3.9 | 0.17 | 1.37 | 6.11 | C[C@H]1Nc2ccn3ncc(c3n2)C(=O)NCC2(CF)Cc3cc(F)cc1c3O2 (stereo partly drawn) [Example 18, (3R)-6-fluoro-11-(fluoromethyl)-3-methyl-10-oxa-2,13,17,18,21-pentaazapentacyclo[13.5.2.1^8,11.0^4,9. 0^18,22]tricosa-1(21),4,6,8,15(22),16,19-heptaen-14-one]
0.98 |  |  |  |  |  |  |  | 7.4 | 4.97 | 0.36 | 0.52 | 4.6 | C[C@H]1Nc2ccn3ncc(c3n2)C(=O)NCC2(C)Cc3cc(Cl)cc1c3O2 (stereo partly drawn) [Example 22, (3R)-6-chloro-3,11-dimethyl-10-oxa-2,13,17,18,21-pentaazapentacyclo[13.5.2.1^8,11.0^4,9.0^18,22]tricosa-1 (21),4,6,8,15(22),16,19-heptaen-14-one]
0.97 |  |  |  |  |  |  |  |  | 8.6 | 1.3 | 0.8 | 15.5 | C[C@H]1Nc2ccc3ncc(n3n2)C(=O)NC[C@@]2(C)Cc3cc(F)cc1c3O2 [Example 26, (3R,11R)-6-fluoro-3,11-dimethyl-10-oxa-2,13,17,21,22-pentaazapentacyclo[13.5.2.1^8,11.0^4,9.0^18 ,22]tricosa-1(21),4,6,8,15,17,19-heptaen-14-one]
